Nine compounds from patent publication US10227331B2 (priority 2015, dated 2019) can be followed below.

Molecules are shown by their SMILES.

The test system of data set [1] is P. aeruginosa expressing IMP-1, efflux+ (MB9798). The class given is cell-based, Pseudomonas aeruginosa. The settings on record: for P. aeruginosa expressing IMP-1, efflux+ (MB9798) MITC95: imipenem at 2 μg/mL, in the presence of a class A, C, D serine β-lactamase inhibitor closely related to relebactam; for Efflux ratio: ratio MITC95 PA_9798/MITC95 PA_9799. The source says: (§1) The strain background is Pseudomonas aeruginosa PAO1.

In data set [2] the target is NDM-1 (Klebsiella pneumoniae, UniProt C7C422). In words: biochemical. The class given is biochemical. The settings on record: CCF2-FA substrate, 2 hours at 25° C; read-out: NDM-1 IC50. The essentials: (§2)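 Two-hour, 25° C incubation of enzyme with inhibitor and CCF2-FA (7-hydroxycoumarin–cephalosporin–fluorescein). Fluorescence read-out; IC50 via 4-parameter fit.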
Chain of NDM-1 (C7C422 whole entry, looked up, species assumed): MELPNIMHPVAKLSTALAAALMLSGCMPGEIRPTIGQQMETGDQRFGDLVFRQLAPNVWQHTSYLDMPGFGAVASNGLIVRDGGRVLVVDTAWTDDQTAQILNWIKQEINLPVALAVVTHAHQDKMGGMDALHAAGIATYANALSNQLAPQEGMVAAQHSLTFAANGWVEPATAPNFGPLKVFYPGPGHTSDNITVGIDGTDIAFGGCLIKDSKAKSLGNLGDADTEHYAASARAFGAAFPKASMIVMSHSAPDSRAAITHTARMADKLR
Data set [3] has as its target IMP-1 (Serratia marcescens, UniProt P52699). In words: biochemical. It counts as biochemical. Particulars: CCF2-FA substrate, 2 hours at 25° C; read-out: IMP-1 IC50. The essentials:
as §2

Data set [4] deals with Klebsiella pneumoniae expressing VIM-1 (IHMA599644). It counts as cell-based. Particulars: with imipenem 1 μg/ml, 95% inhibition of bacterial growth; for Klebsiella pneumoniae MITC95: VIM-1 (IHMA599644). In a few lines: (§3)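 Colonies from overnight 35 °C blood-agar cultures were suspended in saline, diluted 1:100 into 1.1× CAMHB and exposed to test compound with or without imipenem at 1 μg/ml. After 22–24 h at 35 °C, absorbance was read to find the concentration restoring imipenem susceptibility.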

In data set [5] the test system is Serratia marcescens expressing IMP-1 (CL5741). It counts as cell-based. The settings on record: with imipenem 1 μg/ml, 95% inhibition of bacterial growth; for Serratia marcescens MITC95: IMP-1 (CL5741). In a few lines:
as §3

Data set [6] deals with Escherichia coli expressing NDM-1 (CLB30005, CLB30016). It counts as cell-based. Particulars: with imipenem 1 μg/ml, 95% inhibition of bacterial growth; for Escherichia coli MITC95: NDM-1 (CLB30016). The essentials:
as §3

Data set [7] has as its target VIM-1 (Pseudomonas aeruginosa (strain ATCC 15692 / DSM 22644 / CIP 104116 / JCM 14847 / LMG 12228 / 1C / PRS 101 / PAO1), UniProt A0A0F7KYQ8). In words: biochemical. The settings on record: CCF2-FA substrate, 2 hours at 25° C. The essentials:
as §2

For data set [8], the system named is P. aeruginosa expressing IMP-1, efflux− (MB9799). In words: Efflux: concentration of MBL inhibitor which restores susceptibility to imipenem. Particulars: imipenem at 2 μg/mL, in the presence of a class A, C, D serine β-lactamase inhibitor closely related to relebactam. It counts as cell-based, Pseudomonas aeruginosa.
Description: as §1

Chain of IMP-1 (P52699 whole entry, looked up, species assumed): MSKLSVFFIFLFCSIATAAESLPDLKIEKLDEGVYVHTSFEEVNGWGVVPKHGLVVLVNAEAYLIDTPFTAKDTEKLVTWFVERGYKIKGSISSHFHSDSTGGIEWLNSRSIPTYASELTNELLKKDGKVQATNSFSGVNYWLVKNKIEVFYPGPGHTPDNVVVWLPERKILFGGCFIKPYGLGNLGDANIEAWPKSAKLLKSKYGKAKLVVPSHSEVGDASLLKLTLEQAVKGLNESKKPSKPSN

For orientation: IC50 means the midpoint of a concentration-inhibition curve. For `NC(=O)c1ccc(-c2ccc(S(=O)(=O)C3CNC3)c(S(N)(=O)=O)c2-c2nn[nH]n2)c2nc(N)sc12` [Example 39, 2-amino-4-(4-(azetidin-3-ylsulfonyl)-3-sulfamoyl-2-(2H-tetrazol-5-yl)phenyl)benzo[d]thiazole-7-carboxamide], the “P. aeruginosa expressing IMP-1, efflux+ (MB9798) MITC95” value in data set [1] was found to be 0.7813 µM. For the same compound, in data set [1], the Efflux ratio is given as 0.50. Besides, the concentration for half-maximal inhibition (IC50) was 30.3 pM in data set [2], 276 pM in data set [3] and 129 pM in data set [7]. Further, the “Klebsiella pneumoniae expressing VIM-1 (IHMA599644) MITC95” value in data set [4] came to 3.125 µM. For the same compound, in data set [5], the “Serratia marcescens expressing IMP-1 (CL5741) MITC95” value turned out to be 3.125 µM. In data set [6], the “Escherichia coli expressing NDM-1 (CLB30016) MITC95” value turned out to be 1.563 µM. Moreover, the “P. aeruginosa expressing IMP-1, efflux− (MB9799) MITC95” value in data set [8] came to 1.563 µM.
Consider `Nc1nc2cccc(-c3ccc(S(=O)(=O)C4CNC4)c(S(N)(=O)=O)c3-c3nn[nH]n3)c2s1` [Example 26, 3-(2-aminobenzo[d]thiazol-7-yl)-6-(azetidin-3-ylsulfonyl)-2-(2H-tetrazol-5-yl)benzenesulfonamide], for which the “P. aeruginosa expressing IMP-1, efflux+ (MB9798) MITC95” value in data set [1] stood at 3.125 µM. Besides, in data set [1], the Efflux ratio is 2.00. Also, the results for the IC50 in data set [2], in data set [3] and in data set [7] were 28.6 pM, 660 pM and 160 pM, respectively. Moreover, the “Klebsiella pneumoniae expressing VIM-1 (IHMA599644) MITC95” value in data set [4] was determined as 3.125 µM. Further, in data set [5], the “Serratia marcescens expressing IMP-1 (CL5741) MITC95” value amounted to 3.125 µM. Moreover, the “Escherichia coli expressing NDM-1 (CLB30016) MITC95” value in data set [6] stood at 1.563 µM. In data set [8], the “P. aeruginosa expressing IMP-1, efflux− (MB9799) MITC95” value amounted to 1.563 µM.
For `Nc1n[nH]c2c(-c3ccc(S(=O)(=O)C4CNC4)c(S(N)(=O)=O)c3-c3nn[nH]n3)cccc12` [Example 21, 3-(3-amino-1H-indazol-7-yl)-6-(azetidin-3-ylsulfonyl)-2-(2H-tetrazol-5-yl)benzenesulfonamide], the “P. aeruginosa expressing IMP-1, efflux+ (MB9798) MITC95” value in data set [1] amounted to 1.563 µM. For the same compound, the Efflux ratio in data set [1] was 1.00. Moreover, the IC50 amounted to 150 pM in data set [2], 639 pM in data set [3] and 450 pM in data set [7]. In data set [4], the “Klebsiella pneumoniae expressing VIM-1 (IHMA599644) MITC95” value came out at 3.125 µM. For the same compound, the “Serratia marcescens expressing IMP-1 (CL5741) MITC95” value in data set [5] amounted to 3.125 µM. For the same compound, in data set [6], the “Escherichia coli expressing NDM-1 (CLB30016) MITC95” value turned out to be 1.563 µM. In data set [8], the “P. aeruginosa expressing IMP-1, efflux− (MB9799) MITC95” value turned out to be 1.563 µM.
On to `Nc1nc2c(-c3ccc(S(=O)(=O)[C@@H]4CN[C@H](CO)C4)c(S(N)(=O)=O)c3-c3nn[nH]n3)cccc2s1` [Example 349, 3-(2-Aminobenzo[d]thiazol-4-yl)-6-(((3 S,5S)-5-(hydroxymethyl)pyrrolidin-3-yl)sulfonyl)-2-(2H-tetrazol-5-yl)benzenesulfonamide], for which, in data set [1], the “P. aeruginosa expressing IMP-1, efflux+ (MB9798) MITC95” value is 1.563 µM. In data set [1], the Efflux ratio is 1.00. The IC50 worked out at 65.9 pM in data set [2], 220 pM in data set [3] and 452 pM in data set [7]. Besides, the “Klebsiella pneumoniae MITC95” value in data set [4] was 3.125 µM. Also, in data set [5], the “Serratia marcescens MITC95” value amounted to 1.563 µM. Also, the “Escherichia coli MITC95” value in data set [6] worked out at 3.125 µM. Moreover, the “P. aeruginosa expressing IMP-1, efflux− (MB9799) MITC95” value in data set [8] was 1.563 µM.
With `NS(=O)(=O)c1c(S(=O)(=O)CC2CNC2)ccc([C@H]2CC[C@@H](N)CC2)c1-c1nnn[nH]1` [Example 205, 3-((1s, 4s)-4-aminocyclohexyl)-6-((azetidin-3-ylmethyl)sulfonyl)-2-(1H-tetrazol-5-yl)benzenesulfonamide], in data set [1], the “P. aeruginosa expressing IMP-1, efflux+ (MB9798) MITC95” value is 6.25 µM. Besides, in data set [1], the Efflux ratio turned out to be 2.00. Also, the IC50 in data set [2] was 44600 pM; in data set [3], 82500 pM; in data set [7], 6640 pM. Moreover, the “Klebsiella pneumoniae expressing VIM-1 (IHMA599644) MITC95” value in data set [4] was determined as 3.125 µM. Moreover, the “Serratia marcescens expressing IMP-1 (CL5741) MITC95” value in data set [5] is 3.125 µM. Moreover, the “Escherichia coli expressing NDM-1 (CLB30016) MITC95” value in data set [6] was 1.563 µM. Further, in data set [8], the “P. aeruginosa expressing IMP-1, efflux− (MB9799) MITC95” value came to 3.125 µM.
Consider `Nc1nc2c(-c3ccc(S(=O)(=O)C4CNC4)c(S(N)(=O)=O)c3-c3nn[nH]n3)ccc(F)c2[nH]1` [Example 251, 3-(2-Amino-7-fluoro-1H-benzo[d]imidazol-4-yl)-6-(azetidin-3-ylsulfonyl)-2-(2H-tetrazol-5-yl)benzenesulfonamide], for which the “P. aeruginosa expressing IMP-1, efflux+ (MB9798) MITC95” value in data set [1] was found to be 1.563 µM. Besides, in data set [1], the Efflux ratio was 2.00. The IC50 worked out at 72.7 pM in data set [2], 748 pM in data set [3] and 251 pM in data set [7]. Also, the “Klebsiella pneumoniae MITC95” value in data set [4] is 1.563 µM. In addition, the “Serratia marcescens MITC95” value in data set [5] amounted to 1.563 µM. Also, the “Escherichia coli MITC95” value in data set [6] stood at 0.3906 µM. For the same compound, the “P. aeruginosa expressing IMP-1, efflux− (MB9799) MITC95” value in data set [8] came to 0.7813 µM.
As to `NCCCS(=O)(=O)c1ccc(-c2cccc3sc(N)nc23)c(-c2nn[nH]n2)c1S(N)(=O)=O` [Example 194, 3-(2-aminobenzo[d]thiazol-4-yl)-6-(3-aminopropylsulfonyl)-2-(2H-tetrazol-5-yl)benzenesulfonamide], the “P. aeruginosa expressing IMP-1, efflux+ (MB9798) MITC95” value in data set [1] stood at 0.3906 µM. Also, the Efflux ratio in data set [1] is on record as 0.50. For the same compound, the IC50 in data set [2] is 90.8 pM; in data set [3] it was 154 pM; in data set [7], 208 pM. Also, the “Klebsiella pneumoniae expressing VIM-1 (IHMA599644) MITC95” value in data set [4] came to 1.563 µM. In addition, the “Serratia marcescens expressing IMP-1 (CL5741) MITC95” value in data set [5] amounted to 0.7813 µM. In addition, the “Escherichia coli expressing NDM-1 (CLB30016) MITC95” value in data set [6] turned out to be 0.7813 µM. Further, the “P. aeruginosa expressing IMP-1, efflux− (MB9799) MITC95” value in data set [8] is 0.7813 µM.
For the compound `NS(=O)(=O)c1c(S(=O)(=O)C2CNC2)ccc(-c2cccn3ccnc23)c1-c1nnn[nH]1` [Example 58, 6-(Azetidin-3-ylsulfonyl)-3-(imidazo[1,2-a]pyridin-8-yl)-2-(1H-tetrazol-5-yl)benzenesulfonamide], the “P. aeruginosa expressing IMP-1, efflux+ (MB9798) MITC95” value in data set [1] came out at 1.563 µM. In addition, the Efflux ratio in data set [1] amounted to 1.00. The IC50 in data set [2] came out at 378 pM; in data set [3], 597 pM; in data set [7], 342 pM. Further, in data set [4], the “Klebsiella pneumoniae expressing VIM-1 (IHMA599644) MITC95” value worked out at 3.125 µM. Also, in data set [5], the “Serratia marcescens expressing IMP-1 (CL5741) MITC95” value was found to be 1.563 µM. For the same compound, in data set [6], the “Escherichia coli expressing NDM-1 (CLB30016) MITC95” value came to 0.7813 µM. Besides, the “P. aeruginosa expressing IMP-1, efflux− (MB9799) MITC95” value in data set [8] was 1.563 µM.
`NS(=O)(=O)c1c(S(=O)(=O)CCO)ccc(-c2cccc3c2ccc[n+]3[O-])c1-c1nn[nH]n1` [Example 320, 5-(4-((2-hydroxyethyl)sulfonyl)-3-sulfamoyl-2-(2H-tetrazol-5-yl)phenyl)quinoline 1-oxide]: in data set [1], the “P. aeruginosa expressing IMP-1, efflux+ (MB9798) MITC95” value is 25 µM. Besides, the Efflux ratio in data set [1] is reported as 4.00. Further, the IC50 in data set [2] was found to be 939 pM; in data set [3], 1060 pM; in data set [7], 208 pM. Also, in data set [4], the “Klebsiella pneumoniae MITC95” value was determined as 12.5 µM. Besides, in data set [5], the “Serratia marcescens MITC95” value was determined as 25 µM. The “Escherichia coli MITC95” value in data set [6] was 50 µM. In data set [8], the “P. aeruginosa expressing IMP-1, efflux− (MB9799) MITC95” value came to 6.25 µM.
